Reference: article PMC3795654, “Combinatorial Optimization of Cystine-Knot Peptides towards High-Affinity Inhibitors of Human Matriptase-1” (PLoS ONE, 2013)
Read-outs that look alike come from different tables or passages of the source. Where a SMILES comes first, the peptide text is derived from it. Bridges are numbered along the chain shown (N, C = ends).

How the values were obtained:
Human matriptase-1 [1] = assay: Matriptase-1 inhibition assay (Ki / Ki app); format: biochemical; conditions: ratio of Ki values of Table 1
Method: (§5) Human matriptase-1 was produced recombinantly, autocatalytically activated and purified as previously reported [35], [49], [51], [60].
(§6) Apparent inhibition constants (Ki ^app) were calculated by fitting the Morrison equation (1) for tight-binding inhibitors to the relative reaction velocity using non-linear regression (Marquardt-Levenberg algorithm, Sigma Plot 11) [63].

Human matriptase-1 [2] = biological target: T1, Human matriptase-1 (Homo sapiens, UniProt Q9Y5Y6); assay: Matriptase-1 inhibition assay (Ki / Ki app); format: biochemical; conditions: substrate-independent Ki from Ki app (Morrison equation) and Km; 250 µM substrate; preincubation 30 min RT; read over 30 min; triplicate; read-out: Ki (Matriptase-1)
T1 construct: made in house
T1 sequence (Q9Y5Y6 615-855 limits assumed): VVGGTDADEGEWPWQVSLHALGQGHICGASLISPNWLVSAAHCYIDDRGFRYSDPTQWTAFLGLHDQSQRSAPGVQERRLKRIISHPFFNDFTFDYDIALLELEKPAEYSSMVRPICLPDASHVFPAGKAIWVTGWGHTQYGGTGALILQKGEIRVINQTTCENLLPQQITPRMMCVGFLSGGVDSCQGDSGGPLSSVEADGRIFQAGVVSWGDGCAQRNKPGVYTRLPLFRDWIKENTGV
Method: as §5, §6

uPA = uPA (Homo sapiens, UniProt P00749); assay: biochemical
Method: (§1) Human matriptase-1 was produced recombinantly, autocatalytically activated and purified as previously reported, [49], [51], [60]. Bovine pancreatic trypsin, thrombin and uPA were purchased from Sigma-Aldrich and Hepsin from R&D Systems.
(§2) Measurements were carried out in triplicate using a Tecan Genios ELISA reader. The normalized residual proteolytic activity (v/v0) of proteases was determined using substrates Boc-QAR-pNA (250 µM, (pNA stands for para-nitro aniline), Boc-QAR-AMC (250 µM, AMC stands for amino-methyl coumarin) or Spectrozym tPA (250 µM, American Diagnostica, CH3SO2-D-CHT-Gly-Arg-pNA AcOH). Product formation was monitored after preincubation (30 min, RT) with inhibitor at different concentrations over 30 min by measuring the absorbance at 405 nm for pNA substrates or the fluorescence emission for AMC substrates (ex. 360 nm, em. 465 nm), respectively. Selectivity data were carried out in duplicates with final protease concentrations of uPA and thrombin of 5 nM. In case of hepsin 50 mM Tris/HCl pH 9.0 was used as assay buffer.
(§3) Apparent inhibition constants (Ki ^app) were calculated by fitting the Morrison equation (1) for tight-binding inhibitors to the relative reaction velocity using non-linear regression (Marquardt-Levenberg algorithm, Sigma Plot 11). [drawing 1] (1) [drawing 2] (2)
(§4) Substrate-independent inhibition constants Ki were calculated from Ki ^app and Km of the enzyme according to (2). The Michaelis-Menten constant Km for the substrates and proteases were determined previously, [64].

Hepsin = Hepsin (Homo sapiens, UniProt P05981); assay: biochemical
Method: as §1, §2, §3, §4

[3] = biological target: T2, Bovine pancreatic trypsin (Bos taurus, UniProt P00760); assay: Trypsin inhibition assay (substrate-independent Ki); format: biochemical; conditions: substrate-independent Ki from Ki app (Morrison equation) and Km; 250 µM substrate; preincubation 30 min RT; read over 30 min; triplicate
T2 construct: purchased Sigma-Aldrich
T2 sequence (P00760 24-246): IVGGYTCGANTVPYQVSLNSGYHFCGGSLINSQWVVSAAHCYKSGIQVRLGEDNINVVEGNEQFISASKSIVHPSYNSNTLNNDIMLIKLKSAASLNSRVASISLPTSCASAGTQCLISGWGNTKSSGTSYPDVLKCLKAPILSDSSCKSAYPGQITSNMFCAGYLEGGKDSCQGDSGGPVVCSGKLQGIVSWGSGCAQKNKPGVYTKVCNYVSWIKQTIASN
Method: as §6

thrombin = assay: Selectivity assay, thrombin inhibition; format: biochemical; conditions: duplicates; 5 nM protease; no inhibition observed at 10 µM inhibitor concentration
Method: as §6

[4] = test system: uPA activation by matriptase-1 on the surface of PC-3 cells; assay: Cell inhibition assay: uPA activation by matriptase-1 on the surface of PC-3 cells; format: cell-based, human
Method: Human prostate cancer cells (PC-3, Merck KGaA) were cultured in DMEM medium with 10% FCS at 37°C and 5% CO2, washed with cation-free PBS and harvested by scraping. 1×10^5 cells were incubated in presence of 250 µM Bz-β-Ala-Gly-Arg-pNA·AcOH (American Diagnostica), which is a specific […] of urokinase, and the inhibitor of interest in defined dilutions overnight. Product formation was monitored at 405 nm before and after incubation in a microplate reader. IC50 was calculated by non-linear regression using SigmaPlot 11.
Urokinase-type plasminogen activator (uPA) causes the degradation of the extracellular matrix and plays a critical role in tumor invasion and metastasis, [73]. It was shown that activation of receptor-bound pro-uPA is affected by matriptase-1, which results in a decreased ability of uPAexpressing tumor cells to invade an extracellular matrix layer upon inhibition of membrane-bound matriptase-1 [72].
For the indirect determination of the IC50 of SOTI Var. 1 and MCoTI Var. 4 on the surface of these cancer cells, the turnover of an uPA substrate was monitored. Pro-uPA is activated through non-inhibited matriptase-1 and substrate turnover was measured and compared to the previously reported small molecule inhibitor S1 of matriptase-1 (Figure 4). In this experimental setting, the MCoTI-based inhibitor Var. […] 4 in this assay.
Figure 4 Inhibition assay of uPA activation by matriptase-1 on the surface of PC-3 cells. Depicted is the logarithmic inhibitor concentration against the absorption at 405 TEXT PRINTED IN THE PICTURE: MCoTI Var.

Hepsin, sequence (P05981 whole entry): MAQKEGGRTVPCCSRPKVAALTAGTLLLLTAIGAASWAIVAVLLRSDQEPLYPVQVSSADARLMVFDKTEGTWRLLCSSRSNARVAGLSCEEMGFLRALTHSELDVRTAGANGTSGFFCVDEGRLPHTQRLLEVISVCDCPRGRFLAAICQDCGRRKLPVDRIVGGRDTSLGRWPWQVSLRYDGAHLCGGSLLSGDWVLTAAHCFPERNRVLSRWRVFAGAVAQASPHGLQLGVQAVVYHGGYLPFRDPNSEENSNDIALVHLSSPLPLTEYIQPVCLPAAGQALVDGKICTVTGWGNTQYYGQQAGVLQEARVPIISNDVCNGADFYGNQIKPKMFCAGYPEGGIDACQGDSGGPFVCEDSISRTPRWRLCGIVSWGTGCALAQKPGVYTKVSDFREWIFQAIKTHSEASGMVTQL

CC[C@H](C)[C@@H]1NC(=O)[C@@H]2CSSC[C@H](NC(=O)[C@@H](NC(=O)CNC(=O)[C@@H](N)Cc3c[nH]c4ccccc34)C(C)C)C(=O)N3CCC[C@H]3C(=O)N[C@@H](CCCCN)C(=O)N[C@@H](C(C)C)C(=O)N[C@@H](CC(C)C)C(=O)N[C@@H](CCCNC(=N)N)C(=O)N[C@@H](CC(N)=O)C(=O)N[C@H]3CSSC[C@H](NC1=O)C(=O)N[C@@H](CC(C)C)C(=O)NCC(=O)N[C@@H](CC(N)=O)C(=O)NCC(=O)N[C@@H](Cc1ccc(O)cc1)C(=O)N[C@H](C(=O)NCC(N)=O)CSSC[C@H](NC(=O)[C@H](CC(=O)O)NC(=O)[C@H](CO)NC(=O)[C@H](CC(=O)O)NC(=O)[C@H](CCCNC(=N)N)NC(=O)[C@H](CCCNC(=N)N)NC3=O)C(=O)N1CCC[C@H]1C(=O)NCC(=O)N[C@@H](C)C(=O)N2 [MCoTI Var. 4] (H-WGVCPKVLRNCRRDSDCPGACICLGNGYCG-NH2; disulfide 4-21, 11-23, 17-29)
inhibitory activity for matriptase-1 relative to trypsin (Human matriptase-1 [1]): approximately fortyfold higher
Ki (Human matriptase-1 [2]): 0.83 ± 0.14 nM
Ki (uPA): > 10000 nM
Ki (Hepsin): > 10000 nM
Ki (Hepsin; read-out: Ki (Hepsin), duplicates, 50 mM Tris/HCl pH 9.0, no inhibition observed at 10 µM inhibitor concentration): > 10000 nM
Ki [3]: 35.8 ± 4.7 nM
Ki (thrombin): > 10000 nM
IC50 ([4]; 1×10^5 PC-3 cells, 250 µM Bz-β-Ala-Gly-Arg-pNA, overnight, absorbance 405 nm, read-out: IC50 (uPA substrate turnover on PC-3 cells)): 213 nM
potency relative to recently described peptidomimetic small-molecule inhibitors ([4]; PC-3 cells, IC50 comparison (Figure 4)): 10 fold
